The results in this text go back to PMC6374920, “Synthesis and biological evaluation of 3-arylcoumarins as potential anti-Alzheimer's disease agents” (Journal of Enzyme Inhibition and Medicinal Chemistry, 2019).

A word on the IC50: it is the concentration that inhibits the measured activity by half.

Where only a bound is given, the exact number is not on record here.

Assay [1] is described as follows: In vitro antioxidant activity, FRAP assay. As to conditions: FeSO4 as standard; mean ± SD (n = 3). The method, then: The total antioxidant capacity of the 3-arylcoumarin compounds was measured by the FRAP (the Ferric Reducing Ability of Plasma) assay of Benzie et al.[29] with slight modifications. This method is based on the reduction of colourless Fe(III)-TPTZ(2,4,6-Tris(2-pyridyl)-s-triazine) complex to coloured Fe(II)-TPTZ complex by the compounds. FRAP working solution (300 mmol/L acetate buffer, 10 mmol/L TPTZ, 20 mmol/LFeCl3) was ready to use. A hundred microlitres of the sample solution was added to 3 ml of FRAP reagent and then incubated at 37 °C for 15 min. The experiments were repeated for three times. The absorbance was measured at 593 nm to clarify the changes. The standard curve was drawn with FeSO4 as standard material, and the regression equation was obtained. With 1.0 mmol/L FeSO4 as standard, the antioxidant activity of the sample is expressed in millimoles of […] required to achieve the same absorbance.

Assay [2] deals with AChE from electric eel (Electrophorus electricus, UniProt O42275). The following applies: read-out: IC50 value AChE inhibitory activity, mean ± SD (n = 3). How it is done: (§1) The anticholinesterase activity of the 3-arylcoumarin compounds was determined by the method of Ellman et al.[25] with slight modifications. AChE inhibitory activities were determined by AChE from electric eel (Macklin). BuChE inhibitory activities were determined by BuChE from horse serum (Aladdin). To a 10 ml tube, 2.65 ml of phosphate buffer solution (0.1 M, pH = 8.0), 100 µL of 5,5-dithiobis-2-nitrobenzoic acid (0.75 mM in 0.1 M phosphate buffer solution, pH = 8.0) were added sequentially, 50 µL AChE solution (0.2 U/mL in 0.1 M phosphate buffer solution, pH = 8.0), 100 µL of different concentrations of the sample solution, shaken well, and incubated at 37 °C for 5 min. Then 100 µL of substrate (1.5 mM in 0.1 M phosphate buffer solution, pH = 8.0) were added, shaken well, and incubated at 37 °C for 20 min. After the reaction was completed, 1 ml of sodium lauryl sulphate (4%, SDS in water) was added. […] Determination of the inhibitory activity of BuChE is similar. The sample blank group replaced the substrate with PBS, and the blank group replaced the sample solution with a solvent. The sample solution was set to five concentration gradients and the experiment was repeated three times. […] Cholinesterase inhibitory effect (%)=[A0−(A1−A2)]/A0×100% where A0 is the absorbance of blank group; A1 is the absorbance of sample group; A2 is the absorbance of sample blank group.
AChE from electric eel, sequence (O42275 24-633): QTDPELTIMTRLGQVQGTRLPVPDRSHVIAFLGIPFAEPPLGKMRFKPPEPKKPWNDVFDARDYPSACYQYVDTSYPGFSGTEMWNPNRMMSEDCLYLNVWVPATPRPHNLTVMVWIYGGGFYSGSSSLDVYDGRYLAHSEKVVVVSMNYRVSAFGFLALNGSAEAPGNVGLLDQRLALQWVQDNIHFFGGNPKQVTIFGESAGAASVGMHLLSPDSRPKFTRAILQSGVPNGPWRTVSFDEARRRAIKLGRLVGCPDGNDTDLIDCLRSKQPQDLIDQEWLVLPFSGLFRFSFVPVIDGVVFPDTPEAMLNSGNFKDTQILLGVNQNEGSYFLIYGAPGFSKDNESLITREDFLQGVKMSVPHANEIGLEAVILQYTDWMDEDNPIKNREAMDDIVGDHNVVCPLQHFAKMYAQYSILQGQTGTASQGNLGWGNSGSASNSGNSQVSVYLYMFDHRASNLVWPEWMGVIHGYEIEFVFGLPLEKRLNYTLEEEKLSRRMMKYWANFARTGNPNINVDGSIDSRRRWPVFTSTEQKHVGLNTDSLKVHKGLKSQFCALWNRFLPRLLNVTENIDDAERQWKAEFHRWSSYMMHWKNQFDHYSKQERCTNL

Assay [3] has as its target BuChE from horse serum (Equus caballus, UniProt P81908). As to conditions: for IC50: read-out: IC50 value BuChE inhibitory activity, BuChE from horse serum, mean ± SD (n = 3). The method, then:
as §1

In assay [4] the target is T1, MAO-B (Rattus norvegicus, UniProt P19643).
T1 construct: The crude enzyme was extracted from the liver of 200–250 g of Wistar rats; from tissue; host or cells: Wistar rat liver, crude enzyme extract
T1 sequence (P19643 1-520): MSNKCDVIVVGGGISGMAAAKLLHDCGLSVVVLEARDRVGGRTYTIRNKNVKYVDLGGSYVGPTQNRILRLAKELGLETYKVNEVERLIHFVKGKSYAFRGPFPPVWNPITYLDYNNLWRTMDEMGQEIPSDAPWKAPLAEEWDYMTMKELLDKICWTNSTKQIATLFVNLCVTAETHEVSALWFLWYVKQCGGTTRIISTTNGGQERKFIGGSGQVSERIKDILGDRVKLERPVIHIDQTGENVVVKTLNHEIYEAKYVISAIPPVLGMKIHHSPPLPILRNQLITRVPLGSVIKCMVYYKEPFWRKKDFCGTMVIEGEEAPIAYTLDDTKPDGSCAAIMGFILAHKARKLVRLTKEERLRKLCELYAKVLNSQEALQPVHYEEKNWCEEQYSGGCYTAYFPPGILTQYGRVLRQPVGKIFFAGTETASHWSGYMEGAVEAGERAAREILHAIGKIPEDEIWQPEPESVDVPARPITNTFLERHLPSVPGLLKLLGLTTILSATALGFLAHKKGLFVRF
In words: In vitro monoamine oxidase inhibitory activity (Holt method, crude enzyme from rat liver). It is filed as biochemical. As to conditions: crude enzyme from Wistar rat liver; mean ± SD (n = 3). How it is done: The MAO inhibitory activity of the 3-arylcoumarin compounds was determined by the method of Holt et al.[26] with slight modifications. The crude enzyme was extracted from the liver of 200–250 g of Wistar rats according to literature methods. The crude enzyme protein content was determined by the Bradford/method using a Bradford Protein Assay Kit (Beyotime). Forty microlitres of enzyme solution and 40 µL of sample solution were added to a 96-well plate. The solution was then incubated at 37 °C for 20 min. One-twenty microlitres of the 4-(trifluoromethyl) benzylamine solution and 40 µL of the chromogenic agent (1 mmol/L vanillic acid, 0.5 mmol/L 4-aminoantipyrine, 4U/mL horseradish peroxidase, 0.2 M pH = 7.6 PBS constant volume) were added subsequently, and incubated at 37 °C for 90 min. The absorbance was measured at 490 nm using a microplate reader, and the inhibition rate of MAO and the IC50 value of each sample were calculated according to the formula. The control group replaced the sample solution with PBS (0.2 M, pH = 7.6), the positive control replaced the sample with the positive drug, and the blank group replaced the substrate with PBS, and each group was measured three times in parallel to average. Monoamineoxidase inhibitory effect (%)=[(AC−AB)−(AS−ASB)]/(AC−AB)×100% where AC is the absorbance of control group; AB is the absorbance of blank group; AS is the absorbance of sample group; ASB is the absorbance of sample blank group.
MAO plays an important role in neurotransmitter inactivation, and MAO dysfunction is considered to be the cause of many mental and neurological diseases. MAO plays an important role in AD pathology, and the progress of AD has a close correlation with MAO activity[35]^,[36]. All the synthesised compounds were evaluated for their MAO inhibitory activity in the way of Holt[26] by references. […] The MAO used in the experiment was self-made.

BuChE from horse serum, sequence (P81908 whole entry): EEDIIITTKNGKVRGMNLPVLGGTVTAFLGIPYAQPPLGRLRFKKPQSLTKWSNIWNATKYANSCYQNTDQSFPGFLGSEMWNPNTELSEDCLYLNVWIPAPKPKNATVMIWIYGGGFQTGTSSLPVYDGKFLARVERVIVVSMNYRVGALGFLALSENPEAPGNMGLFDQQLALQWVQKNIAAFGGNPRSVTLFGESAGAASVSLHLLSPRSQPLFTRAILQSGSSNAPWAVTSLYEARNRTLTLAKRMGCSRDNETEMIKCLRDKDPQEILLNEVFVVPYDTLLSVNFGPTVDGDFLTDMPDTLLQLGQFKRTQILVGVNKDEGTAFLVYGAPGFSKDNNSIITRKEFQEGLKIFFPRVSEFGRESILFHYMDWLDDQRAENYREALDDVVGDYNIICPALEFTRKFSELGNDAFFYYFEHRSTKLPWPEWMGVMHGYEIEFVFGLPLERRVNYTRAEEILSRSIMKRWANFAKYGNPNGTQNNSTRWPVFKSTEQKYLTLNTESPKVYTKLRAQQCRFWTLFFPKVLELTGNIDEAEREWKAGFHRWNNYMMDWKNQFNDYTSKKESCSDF

As to `O=C1O[C@H]([C@@H](O)CO)C(O)=C1O` [Ascorbic Acid, reference compound], the “FRAP value Antioxidant activity” value in assay [1] turned out to be 3.79 ± 0.08 mmol/g.

Turning to `COc1ccc2cc(-c3ccc(O)cc3)c(=O)oc2c1` [Compound 13], the IC50 is 42.4 ± 3.16 µM in assay [2], 70.7 ± 5.75 µM in assay [3] and above 700 µM in assay [4]. Also, the “FRAP value Antioxidant activity” value in assay [1] stood at 0.61 ± 0.11 mmol/g.

Consider `O=c1oc2cc(O)ccc2cc1-c1ccc(O)cc1` [Compound 4], for which the figures for the half-maximal inhibitory concentration (IC50) in assay [3] and in assay [4] were 34.7 ± 1.87 µM and above 700 µM, respectively. In addition, in assay [1], the “FRAP value Antioxidant activity” value stood at 7.73 ± 0.12 mmol/g.

With `O=c1oc2ccccc2cc1-c1ccc(O)cc1` [Compound 1], the values for the IC50 in assay [2], in assay [3] and in assay [4] were 78.5 ± 2.84 µM, 44.8 ± 2.35 µM and above 700 µM, respectively. In assay [1], the “FRAP value Antioxidant activity” value is 0.51 ± 0.09 mmol/g.

In the case of `O=c1oc2cc(O)ccc2cc1-c1ccccc1` [Compound 5], the “selectivity BuChE over AChE (in words)” value in assay [3] (BuChE vs AChE inhibition) is reported as “selective BuChE inhibitory activity”. Moreover, the values for the IC50 in assay [3] and in assay [4] were 14.4 ± 1.94 µM and above 700 µM, respectively. The “FRAP value Antioxidant activity” value in assay [1] is 0.42 ± 0.01 mmol/g.

As to `COc1ccc(-c2cc3ccc(O)cc3oc2=O)cc1` [Compound 9], the IC50 in assay [3] is 30.1 ± 3.06 µM; in assay [4], above 700 µM. Further, the “FRAP value Antioxidant activity” value in assay [1] came to 0.67 ± 0.04 mmol/g.
